From patent US20250304567A1, “PYRROLIDIONE DERIVATIVES AS INHIBITORS OF NF KAPPA B INDUCING KINASE” (priority 2022, published 2025)
pIC50: −log10 of the molar value. Read-outs that look alike come from different tables or passages of the source.

Key:
[1] = target: Recombinant Human NF-kappaB-Inducing Kinase (NIK/MAP3K14) (Homo sapiens, UniProt Q99558); assay: Inhibition of auto-phosphorylation of recombinant human NIK/MAP3K14 activity (AlphaScreen); format: biochemical; conditions: 5 μM ATP, 1 nM NIK, average if tested more than once
Chain of Recombinant Human NF-kappaB-Inducing Kinase (NIK/MAP3K14) (Q99558 whole entry): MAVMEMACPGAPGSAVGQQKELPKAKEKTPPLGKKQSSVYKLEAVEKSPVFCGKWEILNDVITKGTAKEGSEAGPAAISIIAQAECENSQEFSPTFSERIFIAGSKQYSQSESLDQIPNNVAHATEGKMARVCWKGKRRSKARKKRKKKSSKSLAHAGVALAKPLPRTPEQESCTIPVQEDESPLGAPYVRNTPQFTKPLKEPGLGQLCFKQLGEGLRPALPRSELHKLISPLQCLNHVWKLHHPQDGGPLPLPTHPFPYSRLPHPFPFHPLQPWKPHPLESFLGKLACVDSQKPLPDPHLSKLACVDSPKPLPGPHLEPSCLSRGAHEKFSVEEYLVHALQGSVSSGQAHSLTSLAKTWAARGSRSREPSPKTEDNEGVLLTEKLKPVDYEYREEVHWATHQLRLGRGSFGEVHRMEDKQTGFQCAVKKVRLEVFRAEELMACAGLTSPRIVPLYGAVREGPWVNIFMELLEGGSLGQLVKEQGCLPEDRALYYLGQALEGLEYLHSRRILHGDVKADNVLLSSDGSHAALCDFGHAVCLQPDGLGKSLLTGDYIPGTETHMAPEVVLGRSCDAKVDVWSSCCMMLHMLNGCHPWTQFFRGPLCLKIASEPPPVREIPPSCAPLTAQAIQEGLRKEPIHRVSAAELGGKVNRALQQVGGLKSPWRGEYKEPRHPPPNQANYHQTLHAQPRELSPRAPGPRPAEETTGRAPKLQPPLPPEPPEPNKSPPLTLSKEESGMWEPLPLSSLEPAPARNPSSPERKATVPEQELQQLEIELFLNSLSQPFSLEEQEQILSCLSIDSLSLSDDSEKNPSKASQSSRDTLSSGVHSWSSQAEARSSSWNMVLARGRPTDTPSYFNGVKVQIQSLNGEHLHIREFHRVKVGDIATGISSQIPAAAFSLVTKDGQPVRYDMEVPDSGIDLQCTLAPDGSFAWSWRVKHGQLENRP
Method: Assay 1: Inhibition of Auto-Phosphorylation of Recombinant Human NF-kappaB-Inducing Kinase (NIK/MAP3K14) Activity (AlphaScreen™)
NIK/MAP3K14 auto-phosphorylation activity was measured using the AlphaScreen™ (αscreen) format (Perkin Elmer). All compounds tested were dissolved in dimethyl sulfoxide (DMSO) and further dilutions were made in assay buffer. The final DMSO concentration was 0.7% (v/v) in assays. The assay buffer was 50 mM Tris pH 7.5 containing 1 mM EGTA (ethylene glycol tetraacetic acid), 1 mM DTT (dithiothreitol), 0.1 mM Na3VO4, 5 mM MgCl2, and 0.01% Tween®20. The assays were carried out in 384 well Proxiplates (Perkin Elmer). The incubations consisted of the compound, 5 μM Adenosine-5′-triphosphate (ATP), and 1 nM NIK/MAP3K14. Incubations were initiated by the addition of GST-tagged NIK/MAP3K14 enzyme, carried out for 2 h at 25° C. and terminated by addition of stop buffer containing anti-phospho-IKK Ser176/180 antibody. Protein A Acceptor and Glutathione-Donor beads were added before reading using an EnVision Multilabel Plate Reader (Perkin Elmer). The signal obtained in the wells was normalized using high (full enzyme activity, 0.7% DMSO) and low controls (no enzyme activity, 0.7% DMSO, no ATP). IC50's were determined by fitting a sigmoidal curve to % inhibition of control versus Log10 compound concentration.

[2] = test system: p-IKKa levels in L363 (NIK translocated multiple myeloma) cells; assay: Effect of compounds on p-IKKa levels in L363 (NIK translocated multiple myeloma) cells (AlphaLISA SureFire Ultra p-IKKa Ser176/180); format: cell-based, human; conditions: average if tested more than once, read-out: Assay 2 IC50
Method: Assay 2: Effect of Compounds on p-IKKa Levels in L363 (NIK Translocated Multiple Myeloma) Cells
All compounds tested were dissolved and serially diluted in DMSO, 1:3 dilution for 11 points in an Echo compatible plate. 100% DMSO was added to columns 12 and 24 of the plate to serve as high and low signal controls. This compound plate was used to spot 20 nL of compound or DMSO into a Greiner 384 well TC plate (781080). The final DMSO concentration was 0.3% (v/v) in cell assays. Human L363 cells (ATCC) were cultured in RPM11640 medium supplemented with GlutaMax, non-essential amino acids, sodium pyruvate and 10% fetal bovine serum. Cells were routinely maintained at densities of 0.2×10^6 cells per ml-2×10^6 cells per mL at 37° C. in a humidified 5% CO2 atmosphere incubator. Cells were passaged twice a week splitting back to obtain the low density. The day before the assay, cells were washed twice in HBSS (Hank's Balanced Salt Solution), resuspended in Dulbecco's Modified Eagle Medium (DMEM)+0.5% IgG and protease free BSA (Jackson Immuno Research Laboratories), +/−250 ng/ml recombinant human B-cell activating factor (BAFF/BLyS/TNFSF13B) and incubated overnight at 37° C. in a humidified 5% CO2 atmosphere (bulk stimulation with or without BAFF). The next day, the cell concentration was adjusted to 1×10^7 cells/ml in DMEM+/−250 ng/ml BAFF+/−10 μM MG132 and plated at 10 μl/well into compound or DMSO spotted 384 well TC plates. Seeded cells were incubated at 37° C. in a humidified 5% CO2 atmosphere for 6 h. After 6 h, the plates were removed from the incubator and cell lysis was achieved by the addition of 2.5 μl 5× lysis buffer containing protease and phosphatase inhibitors, followed by shaking on a plate shaker at room temperature for 15 min. At the end of this incubation, lysed cells were sequentially treated and incubated with acceptor and donor bead mixes according to the manufacturer's protocol for a 1 plate/2-incubation suspension cell assay (AlphaLISA SureFire Ultra p-IKKa (Ser 176/180) Assay Kit (Perkin Elmer). Plates were read using an EnVision Multilabel Plate Reader (Perkin Elmer). Within an experiment, a concentration response curve for each compound was run in duplicate. The signal obtained in the test wells was normalized using high signal (BAFF stimulated cells, DMSO, MG132) and low signal (unstimulated cells, DMSO) controls. To determine the IC50, a sigmoidal curve was fitted to the plot of % inhibition versus Log10 compound concentration.

[3] = Homo sapiens, L-363, p-IKKa levels in L363 cells

SMILES	pIC50 [1]	pIC50 ([2]; p-IKKa levels in L363 cells)	pIC50 [2, 3]
CN1CCC(O)(c2ccc(F)c(-c3csc(-c4ccnc(Nc5ccn(C)n5)n4)n3)c2)C1=O (single isomer, unassigned) [Example 29, 3-(4-fluoro-3-(2-(2-((1-methyl-1H-pyrazol-3-yl)amino)pyrimidin-4-yl)thiazol-4-yl)phenyl)-3-hydroxy-1-methylpyrrolidin-2-one]	6.30 to 7.00	< 6.30	
CN1CCC(O)(c2ccnc(-c3nc(-c4ccnc(Nc5ccn(C)n5)n4)cs3)c2)C1=O (single isomer, unassigned) [Example 33, 3-hydroxy-1-methyl-3-(2-(4-(2-((1-methyl-1H-pyrazol-3-yl)amino)pyrimidin-4-yl)thiazol-2-yl)pyridin-4-yl)pyrrolidin-2-one]	< 6.30	< 6.30	
CN1CCC(O)(c2ccnc(-c3nc(-c4ccnc(Nc5ccn(C)n5)n4)cs3)c2)C1=O (single isomer, unassigned) [Example 34, 3-hydroxy-1-methyl-3-(2-(4-(2-((1-methyl-1H-pyrazol-3-yl)amino)pyrimidin-4-yl)thiazol-2-yl)pyridin-4-yl)pyrrolidin-2-one]	> 7.00	6.30 to 7.00	
CN1CC(F)(F)C(O)(c2cccc(-c3nc(-c4ccnc(Nc5ccn(C)n5)n4)cs3)c2)C1=O (single isomer, unassigned) [Example 35, 4,4-difluoro-3-hydroxy-1-methyl-3-(3-(4-(2-((1-methyl-1H-pyrazol-3-yl)amino)pyrimidin-4-yl)thiazol-2-yl)phenyl)pyrrolidin-2-one]	< 6.30	< 6.30	
CN1CC(F)(F)C(O)(c2cccc(-c3nc(-c4ccnc(Nc5ccn(C)n5)n4)cs3)c2)C1=O (single isomer, unassigned) [Example 36, 4,4-difluoro-3-hydroxy-1-methyl-3-(3-(4-(2-((1-methyl-1H-pyrazol-3-yl)amino)pyrimidin-4-yl)thiazol-2-yl)phenyl)pyrrolidin-2-one]	> 7.00	6.30 to 7.00	
CC(Nc1nccc(-c2nc(-c3cccc(C4(O)CCN(C)C4=O)c3)cs2)n1)c1cnn(C)c1 (single isomer, unassigned) [Example 39]	> 7.00	> 7.00	
CC(Nc1nccc(-c2nc(-c3cccc(C4(O)CCN(C)C4=O)c3)cs2)n1)c1cnn(C)c1 (single isomer, unassigned) [Example 40]	> 7.00	< 6.30	
CC(Nc1nccc(-c2nc(-c3cccc(C4(O)CCN(C)C4=O)c3)cs2)n1)c1cc[nH]n1 (single isomer, unassigned) [Example 41]	> 7.00	6.30 to 7.00	
CC(Nc1nccc(-c2nc(-c3cccc(C4(O)CCN(C)C4=O)c3)cs2)n1)c1cc[nH]n1 (single isomer, unassigned) [Example 42]	> 7.00	< 6.30	
CN1CCC(O)(c2cncc(-c3csc(-c4ccnc(Nc5ccnn5C)n4)n3)c2)C1=O (single isomer, unassigned) [Example 46, (R)-3-Hydroxy-1-methyl-3-(5-(2-(2-((1-methyl-1H-pyrazol-5-yl)amino)pyrimidin-4-yl)thiazol-4-yl)pyridin-3-yl)pyrrolidin-2-one or (S)-3-hydroxy-1-methyl-3-(5-(2-(2-((1-methyl-1H-pyrazol-5-yl)amino)pyrimidin-4-yl)thiazol-4-yl)pyridin-3-yl)pyrrolidin-2-one]	> 7.00		> 7.00
CC(Nc1nccc(-c2nc(-c3cccc(C4(O)CCN(C)C4=O)c3)cs2)n1)c1ccn(C)n1 (single isomer, unassigned) [Example 50]	6.30 to 7.00	< 6.30	
CC(Nc1nccc(-c2nc(-c3cccc(C4(O)CCN(C)C4=O)c3)cs2)n1)c1ccn(C)n1 (single isomer, unassigned) [Example 51]	> 7.00	6.30 to 7.00	
CN1CCC(O)(c2cc(C#N)cc(-c3csc(-c4ccnc(Nc5ccn(C)n5)n4)n3)c2)C1=O (single isomer, unassigned) [Example 57, 3-(3-hydroxy-1-methyl-2-oxopyrrolidin-3-yl)-5-(2-(2-((1-methyl-1H-pyrazol-3-yl)amino)pyrimidin-4-yl)thiazol-4-yl)benzonitrile]	> 7.00		< 6.30
CN1CCC(O)(c2cc(C#N)cc(-c3csc(-c4ccnc(Nc5ccn(C)n5)n4)n3)c2)C1=O (single isomer, unassigned) [Example 58, 3-(3-hydroxy-1-methyl-2-oxopyrrolidin-3-yl)-5-(2-(2-((1-methyl-1H-pyrazol-3-yl)amino)pyrimidin-4-yl)thiazol-4-yl)benzonitrile]	< 6.30	< 6.30	
CN1C(=O)[C@](O)(c2ccnc(-c3csc(-c4ccnc(Nc5ccn(C)n5)n4)n3)c2)C[C@H]1C(F)(F)F (single isomer, unassigned) [Example 59]	> 7.00		6.30 to 7.00
CN1C(=O)[C@@](O)(c2ccnc(-c3csc(-c4ccnc(Nc5ccn(C)n5)n4)n3)c2)C[C@@H]1C(F)(F)F (single isomer, unassigned) [Example 60]	6.30 to 7.00		< 6.30
CN1C(=O)[C@](O)(c2cncc(-c3csc(-c4ccnc(Nc5ccn(C)n5)n4)n3)c2)C[C@H]1C(F)(F)F (single isomer, unassigned) [Example 61]	> 7.00		6.30 to 7.00
CN1C(=O)[C@@](O)(c2cncc(-c3csc(-c4ccnc(Nc5ccn(C)n5)n4)n3)c2)C[C@@H]1C(F)(F)F (single isomer, unassigned) [Example 62]	< 6.30		< 6.30
C[C@H](Nc1nccc(-n2ccc(-c3cccc([C@]4(O)CCN(C)C4=O)c3)n2)n1)c1ccnn1C (single isomer, unassigned) [Example 91]	> 7.00		6.30 to 7.00
C[C@@H](Nc1nccc(-n2ccc(-c3cccc([C@]4(O)CCN(C)C4=O)c3)n2)n1)c1ccnn1C (single isomer, unassigned) [Example 92]	> 7.00		> 7.00
C[C@H](Nc1nccc(-n2ccc(-c3cccc([C@]4(O)CCN(C)C4=O)c3)n2)n1)c1cnn(C)c1 (single isomer, unassigned) [Example 93]	> 7.00		6.30 to 7.00
C[C@@H](Nc1nccc(-n2ccc(-c3cccc([C@]4(O)CCN(C)C4=O)c3)n2)n1)c1cnn(C)c1 (single isomer, unassigned) [Example 94]	> 7.00		< 6.30
C[C@H](Nc1nccc(-c2nc(-c3cccc([C@]4(O)CCN(C)C4=O)c3)cs2)n1)c1ccnn1C (single isomer, unassigned) [Example 126]	> 7.00		6.30 to 7.00
C[C@@H](Nc1nccc(-c2nc(-c3cccc([C@]4(O)CCN(C)C4=O)c3)cs2)n1)c1ccnn1C (single isomer, unassigned) [Example 127]	> 7.00		6.30 to 7.00
COC[C@H](Nc1nccc(-c2nc(-c3cccc([C@]4(O)CCN(C)C4=O)c3)cs2)n1)c1ccnn1C (single isomer, unassigned) [Example 129]	> 7.00		6.30 to 7.00
COC[C@@H](Nc1nccc(-c2nc(-c3cccc([C@]4(O)CCN(C)C4=O)c3)cs2)n1)c1ccnn1C (single isomer, unassigned) [Example 130]	> 7.00		6.30 to 7.00
